How the values were obtained:
Experiment in all cases: relative viability (nuclei count vs DMSO), 5 days (fraction); higher = more cells survive
[1] = compound: C[As](C)SC[C@H](NC(=O)CC[C@H](N)C(=O)O)C(=O)NCC(=O)O [Darinaparsin] + Nc1nc2[nH]cc(CCc3ccc(C(=O)N[C@@H](CCC(=O)O)C(=O)O)cc3)c2c(=O)[nH]1 [Pemetrexed] (partner 0.2 µM)
Procedure, shortened: (§1)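 Each reported value is a median over duplicate plates. It expresses relative viability: treated-well nuclei count divided by vehicle-well nuclei count. Lung cancer cell lines in 1536-well plates were dosed by pin tool a day after seeding, alone with one drug or with a fixed anchor-drug dose plus five library-drug doses (not always all listed) in √10 steps, and nuclei were counted after 5 days.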

[2] = compound: C1CC2=C(C1)C=C(C=C2)OC3=NC(=C4C(=N3)N(C=N4)CC5=CC=C(C=C5)C6=CC=CC=C6)N[C@@H](CC7=CC=CC=C7)CO [QS11] + CC(C)C[C@H](NC(=O)[C@H](Cc1ccccc1)NC(=O)c1cnccn1)B(O)O [Bortezomib] (partner 0.002 µM)
Procedure, shortened: as §1

[3] = compound: C1CC2=C(C1)C=C(C=C2)OC3=NC(=C4C(=N3)N(C=N4)CC5=CC=C(C=C5)C6=CC=CC=C6)N[C@@H](CC7=CC=CC=C7)CO [QS11] + C[C@]1(O)C[C@@H](c2nc(-c3ccc4ccc(-c5ccccc5)nc4c3)c3c(N)nccn32)C1 [Linsitinib] (partner 1 µM)
Procedure, shortened: as §1

[4] = compound: CC1=C(C=C(C=C1)NC(=O)C2=CC(=CC=C2)C(C)(C)C#N)NC3=CC4=C(C=C3)N=CN(C4=O)C [AZ628] + CC(=O)c1c(C)c2cnc(Nc3ccc(N4CCNCC4)cn3)nc2n(C2CCCC2)c1=O [Palbociclib] (partner 0.5 µM)
Procedure, shortened: as §1

Cell Line | relative viability ([1]; first compound 0.08 µM) | relative viability ([1]; first compound 2.53 µM) | relative viability ([1]; first compound 8 µM) | relative viability ([2]; first compound 0.08 µM) | relative viability ([2]; first compound 0.253 µM) | relative viability ([2]; first compound 2.53 µM) | relative viability ([2]; first compound 8 µM) | relative viability ([3]; first compound 0.08 µM) | relative viability ([3]; first compound 0.253 µM) | relative viability ([3]; first compound 2.53 µM) | relative viability ([3]; first compound 8 µM) | relative viability ([4]; first compound 0.08 µM) | relative viability ([4]; first compound 0.253 µM) | relative viability ([4]; first compound 0.8 µM) | relative viability ([4]; first compound 2.53 µM) | relative viability ([4]; first compound 8 µM) | relative viability ([1]; first compound 0.8 µM) | relative viability ([2]; first compound 0.8 µM) | relative viability ([3]; first compound 0.8 µM)
HCC-366 | 0.18 | 0.15 | 0.2 | 1.28 | 0.688 | 0.808 | 0.318 | 0.696 | 0.575 | 0.355 | 0.303 | 0.383 | 0.352 | 0.328 | 0.445 | 0.163 | – | – | –
HCC-827 | 0.256 | 0.254 | 0.263 | 1.06 | 1.09 | 0.962 | 1.04 | 0.977 | 1.04 | 0.929 | 0.821 | 0.474 | 0.456 | 0.357 | 0.487 | 0.311 | 0.268 | 0.937 | 0.877
HOP-62 | 0.421 | 0.276 | 0.361 | 0.718 | 1.01 | 0.594 | 0.652 | 0.784 | 1.05 | 0.616 | 0.913 | 0.49 | 0.473 | 0.491 | 0.492 | 0.314 | 0.36 | 0.728 | 0.852
IA-LM | – | – | – | 0.978 | 0.856 | 0.665 | 0.328 | 0.548 | 0.417 | 0.389 | 0.601 | – | – | – | – | – | – | 0.677 | 0.29
LC-2-ad | 0.283 | 0.27 | 0.289 | 0.987 | 1.03 | 0.962 | 1.1 | 0.791 | 0.832 | 0.817 | 0.829 | 0.473 | 0.51 | 0.424 | 0.468 | 0.373 | 0.272 | 0.651 | 0.699
LCLC-103H | 0.466 | 0.448 | 0.422 | 1.04 | 1.1 | 1.07 | 0.891 | 1.08 | 1.1 | 1.21 | 1.09 | 0.478 | 0.48 | 0.44 | 0.314 | 0.417 | 0.422 | 0.811 | 0.74
LK-2 | 0.24 | 0.286 | 0.329 | – | – | – | – | 0.341 | 0.619 | 0.31 | 0.81 | 0.911 | 0.849 | 0.412 | 0.736 | 0.366 | – | – | 0.668
LOU-NH91 | 0.414 | 0.314 | 0.384 | 0.494 | 0.491 | 0.488 | 0.437 | 0.901 | 0.862 | 0.891 | 0.876 | 0.535 | 0.526 | 0.547 | 0.557 | 0.539 | 0.431 | 0.417 | –
NCI-H358 | 0.176 | 0.172 | 0.18 | – | – | – | – | 0.731 | 0.779 | 1.49 | 1.33 | 0.126 | 0.131 | 0.136 | 0.142 | 0.123 | 0.162 | – | 0.952
NCI-H522 | 0.916 | 1.01 | 1.14 | – | – | – | – | – | – | – | – | 0.947 | 0.954 | 0.842 | 1.04 | 0.75 | 1.04 | – | –
NCI-H596 | 0.513 | 0.479 | 0.508 | – | 0.807 | 0.869 | 1.06 | 1.04 | 1.02 | 1.1 | 1.16 | – | – | – | – | – | 0.533 | 1.15 | 1.01
NCI-H727 | – | – | – | 0.804 | 0.72 | 0.739 | 0.35 | 0.287 | 0.296 | 0.316 | 0.289 | 0.553 | – | – | 0.517 | 0.363 | – | 0.893 | 0.338
NCI-H1299 | – | – | – | 1.03 | 1.06 | 0.969 | 0.841 | 0.999 | 0.995 | 0.87 | 0.959 | – | – | – | – | – | – | 0.915 | 0.787
NCI-H1395 | 0.944 | 0.795 | 0.792 | – | – | – | – | – | 1.01 | 1.16 | 1.18 | 0.614 | 0.612 | 0.622 | 0.609 | 0.631 | 0.719 | – | 1.17
NCI-H1563 | 0.761 | 0.669 | 0.866 | 0.822 | 0.825 | 0.769 | 0.722 | 1.16 | 1.3 | 1.34 | 1.32 | – | – | – | – | – | 0.765 | 0.853 | 1.26
NCI-H1648 | – | – | 0.683 | – | – | – | – | – | – | – | – | 0.264 | 0.268 | 0.224 | 0.253 | 0.274 | 0.716 | – | –
NCI-H1650 | 0.426 | 0.342 | 0.396 | 0.183 | 0.215 | 0.197 | 0.186 | – | – | – | – | 0.471 | 0.372 | 0.335 | 0.302 | 0.42 | 0.369 | 0.18 | –
NCI-H1703 | – | – | – | 0.323 | 0.376 | 0.236 | 0.203 | 1.1 | 0.48 | 0.752 | 0.611 | – | – | – | – | – | – | 0.254 | 1.06
NCI-H1793 | 1.01 | – | 1.05 | – | – | – | – | 0.972 | 0.877 | 1.19 | 1.04 | 0.35 | 0.403 | 0.305 | 0.266 | 0.255 | 0.89 | – | 0.939
NCI-H1944 | 0.663 | 0.649 | 0.57 | – | – | – | – | 1.18 | 1.38 | 1.18 | 1.26 | 0.359 | 0.312 | 0.305 | 0.311 | 0.229 | 0.687 | – | –
NCI-H2170 | 0.32 | 0.389 | 0.287 | – | – | – | – | – | – | – | – | 0.413 | 0.349 | 0.381 | 0.418 | 0.424 | 0.267 | – | –
NCI-H2342 | 0.785 | 0.743 | 0.841 | – | – | – | – | – | – | – | – | 0.544 | 0.513 | 0.562 | 0.511 | 0.537 | 0.782 | – | –
SK-MES-1 | 1.17 | 0.924 | 1.12 | – | – | – | – | 1.13 | 1.08 | 1.03 | 1.05 | 0.361 | 0.343 | 0.246 | 0.324 | 0.328 | 0.924 | – | 0.959
SW 900 | 0.402 | 0.481 | 0.517 | – | – | – | – | – | – | – | – | 0.595 | 0.542 | 0.537 | 0.555 | 0.497 | – | – | –

Source: the supplement of paper PMC10307832
